{
  "source": "patent US20160184439A1",
  "about": "“ORALLY DISINTEGRATING FILM PREPARATION CONTAINING DONEPEZIL OR PHARMACEUTICALLY ACCEPTABLE SALT THEREOF, AND PREPARATION METHOD THEREFOR” (SEOUL PHARMA. CO., LTD., priority 2013, published 2016)",
  "test": "Characteristic feature of the main excipients",
  "conditions": "effect of excipient in donepezil film",
  "from_the_text": "The characteristic feature of the main excipients of the present invention—In order to achieve the object of the above formulation research, it can be seen that the main excipients of the below Table 3 are essential elements.",
  "data": [
    {"smiles": "Cc1cc(C(C)(C)C)c(O)c(C(C)(C)C)c1", "note": "[Dibuthylhydroxytoluene]", "values": [
      {"measurement": "Occurrence of the impurity", "result": "Inhibition"}
    ]},
    {"smiles": "CC(O)COC[C@H]1O[C@@H]2O[C@H]3[C@H](O)[C@@H](O)[C@@H](O[C@H]4[C@H](O)[C@@H](O)[C@@H](O[C@H]5[C@H](O)[C@@H](O)[C@@H](O[C@H]6[C@H](O)[C@@H](O)[C@@H](O[C@H]7[C@H](O)[C@@H](O)[C@@H](O[C@H]8[C@H](O)[C@@H](O)[C@@H](O[C@H]1[C@H](O)[C@H]2O)O[C@@H]8COCC(C)O)O[C@@H]7COCC(C)O)O[C@@H]6COCC(C)O)O[C@@H]5COCC(C)O)O[C@@H]4COCC(C)O)O[C@@H]3COCC(C)O", "note": "(some centres unmarked) [Hydroxypropylbetadex]", "values": [
      {"measurement": "Occurrence of the impurity", "result": "Inhibition"}
    ]}
  ]
}
